What was measured:
[1] = tested on: satellite III chromatin in Kc nuclei; conditions: previously reported (Kas and Laemmli, 1992); cited from earlier work
[2] = target: W9 probe (tandem repeats of an oligonucleotide with a 9 bp AT-tract); assay: DNase I footprinting on probe W9; format: binding; conditions: apparent binding affinity, DNase I footprinting, probe W9; read-out: Kdapp W9
Text: DNase I cleavage pattern in the presence of P9 and P7. Ligand concentrations are indicated at the top of each lane. The position of each of the AT-tracts is indicated by square brackets. […] This probe is composed of head-to-tail tandem repeats of an oligonucleotide with a 9 bp AT-tract.
(§1) Synthetic oligonucleotides […] and […] were hybridized to obtain the W9 probe, oligomerized by ligation and digested with BamHI and BglII to obtain different tandem repeats. The following oligonucleotides were prepared identically: GAF31 is composed of the oligonucleotides […] and […] and, BrownI of oligonucleotides […] and […]. Fragments were purified on low-melt agarose gels and then cloned into a modified pSP64 vector, cut by BamHI and BglII. End-labeling was carried out following digestion with HindIII and a fill-in reaction with Klenow DNA polymerase. The labeled plasmid was cut with PvuII and the target fragments purified from low-melting agarose gels. The 657 bp EcoR1/Hinf1 fragment of the Drosophila histone SAR was cloned into the SmaI site of the modified pSP64 plasmid. This SAR probe was end-labeled following-digestion with EcoR1, then cut with ClaI and the resulting 347 bp fragment purified from low-melting agarose gels.
(§2) All reactions were performed in a total volume of 40 μl. A polyamide stock solution or buffer (for reference lanes) was added to an assay buffer containing 20 kcpm radiolabeled DNA, affording final concentrations of 10 mM Tris-HCl (pH 7.4), 10 mM KCl, 10 MM MgCl, 5 mM CaCl2, 0.5 mM EDTA, 0.5 mM EGTA, 1 mM DTT and 0.1% digitonine. The solutions were allowed to equilibrate for at least 2 h at room temperature. Footprinting reactions were initiated by the addition of 2 μl of a DNase stock solution (containing −100 μg DNase I in buffer) and allowed to proceed for 2 min at room temperature. The reactions were stopped by addition of 10 μl of a solution containing 1.25 M NaCl, 100 mM EDTA. Next, 5 μl of a 1% SDS solution was added, followed by 2 μl of a solution containing 1 μg poly(dA-dT), 1 μg salmon sperm DNA and 10 μg glycogen and the DNA was ethanol precipitated (20 min at −20 C.). The reactions were resuspended in 4 μl of 80% formamide loading buffer, denatured 10 min at 85 C., cooled on ice and electrophoresed on 8% polyacrylamide denaturing gels (5% cross-link, 8 M urea) at 30 W for 1 h. The gels were dried and exposed o/n at −70 C.

Drosophila histone SAR = assay: DNase I footprinting on SAR probe; format: binding; conditions: for Ratio: Kdapp W9 / Kdapp SAR (SAR specificity factor); for Kd: apparent binding affinity, DNase I footprinting, SAR probe, read-out: Kdapp SAR
Method: as §1, §2

[3] = tested on: DNA satellites in Kc nuclei and polytene chromosomes; assay: Staining of Kc nuclei and polytene chromosomes with fluorescent polyamides; set-up: species or system Drosophila; conditions: isolated Kc nuclei and polytene chromosomes
Method: Kc Drosophila nuclei were isolated (Mirkovitch et al., 1984), diluted into XBE (10 mM Hepes, pH 7.7, 2 mM MgCl2, 0.1 mM CaCl2, 100 mM KCl, 5 mM EGTA and 50 mM sucrose), fixed with 0.8% fresh paraformaldehyde for 15 minutes and spun onto a round coverslip (10 mm) as described previously (Boy de la Tour and Laemmli, 1988). For washing and staining, coverslips were floated on 60 μl drops of XBE deposited on […]. After centrifugation coverslips were washed twice (1 minute), stained for 60 minutes, washed four times (1 minute) and then mounted in PPDI (5 mM Hepes pH 7.8, 100 mM NaCl, 20 mM KCl, 1 mM EGTA, 10 mM Mg SO4, 2 mM CaCl2, 78% glycerol, 1 mgr/ml paraphenylene diamine). FIG. (4) panel A was stained with 0.5 μM […] and 15 μM ethidium bromide (EB). Kc nuclei and polytene chromosomes were stained with fluorescent polyamides as described elsewhere (Janssen et al., 2000). For immunofluorescence, polytene glands were carefully dissected from bw^D or Canton S. flies in 1× PBS as described (Ashburner, 1989) Whole glands in sol P (1×PBS supplemented with 1 mM MgCl2 and 0.1% digitonin) were then incubated for 60 minutes with various concentrations of either P31, P9 or no compound at room temperature. P31 (not P9) induced redistribution of GAF during this incubation step. […] Images were recorded with a wide field, deconvolution-type imaging system from DeltaVision.

| Kd [2] [nM] | Ratio (Drosophila histone SAR) | Kd (Drosophila histone SAR) [nM] | increase of SAR specificity upon fluorescein tagging (Drosophila histone SAR; tagged versus untagged compound) | Compound | chromatin opening at satellite III by distamycin [1] | main nuclear targets by epifluorescence staining [3] |
| --- | --- | --- | --- | --- | --- | --- |
| 80 | 2.3 | 35 |  | CN(C)CCCNC(=O)CCNC(=O)c1cc(NC(=O)c2cc(NC(=O)c3cc(NC(=O)c4cc(NC(=O)c5cccn5C)cn4C)cn3C)cn2C)cn1C [Compound P10, (Py)5βDp] |  |  |
| 1 | 0.8 | 1.25 |  | CN(C)CCCNC(=O)CCNC(=O)c1cc(NC(=O)c2cc(NC(=O)c3cc(NC(=O)CCNC(=O)c4cc(NC(=O)c5cc(NC(=O)c6cc(NC(=O)CCNC(=O)c7cc(NC(=O)c8cc(NC(=O)c9cccn9C)cn8C)cn7C)cn6C)cn5C)cn4C)cn3C)cn2C)cn1C [Compound P13, ((Py)3β)3Dp] |  |  |

Continued, compound first:

| Compound | Kd [2] [nM] | Ratio (Drosophila histone SAR) | Kd (Drosophila histone SAR) [nM] | increase of SAR specificity upon fluorescein tagging (Drosophila histone SAR; tagged versus untagged compound) | chromatin opening at satellite III by distamycin [1] | main nuclear targets by epifluorescence staining [3] |
| --- | --- | --- | --- | --- | --- | --- |
| Cn1cc(NC(=O)c2cc(NC(=O)c3cc(NC=O)cn3C)cn2C)cc1C(=O)NCCC(=N)N [distamycin] |  |  |  |  | causes opening of the chromatin fiber |  |
| (Py)3β(Py)3βD* [Compound P9F] | 4 | 4 | 1 | about 4 fold |  | targets primarily satellite I and III |
| F*γ(Py)5βDp [Compound P10F] | 3000 | 2.5 | 1200 |  |  |  |

Reference: patent US20030157715A1, “Modulation of chromosome function by chromatin remodeling agents” (priority 2000, published 2003)
